The record followed here is ChEMBL document CHEMBL4680207, “The discovery, design and synthesis of potent agonists of adenylyl cyclase type 2 by virtual screening combining biological evaluation” (Eur J Med Chem, 2020).

Test [1] addresses T1, Adenylate cyclase type 2 (Homo sapiens, UniProt Q08462). The test is described as follows: Agonist activity at recombinant human AC2 expressed in HEK293 cells assessed as increase in cAMP level by measuring cAMP level at 50 uM measured after 30 mins by LANCE Ultra cAMP Detection kit method relative to control. Type of test: cell-based. Background: Changes in cAMP serve as a functional read-out for many G protein-coupled receptors.

In test [2] the target is T1, Adenylate cyclase type 2. The test is described as follows: Agonist activity at recombinant human AC2 expressed in HEK293 cells assessed as increase in cAMP level measured after 30 mins by LANCE Ultra cAMP Detection kit method. Type of test: cell-based.

Each structure is given as a SMILES string.

T1 sequence (Q08462 whole entry): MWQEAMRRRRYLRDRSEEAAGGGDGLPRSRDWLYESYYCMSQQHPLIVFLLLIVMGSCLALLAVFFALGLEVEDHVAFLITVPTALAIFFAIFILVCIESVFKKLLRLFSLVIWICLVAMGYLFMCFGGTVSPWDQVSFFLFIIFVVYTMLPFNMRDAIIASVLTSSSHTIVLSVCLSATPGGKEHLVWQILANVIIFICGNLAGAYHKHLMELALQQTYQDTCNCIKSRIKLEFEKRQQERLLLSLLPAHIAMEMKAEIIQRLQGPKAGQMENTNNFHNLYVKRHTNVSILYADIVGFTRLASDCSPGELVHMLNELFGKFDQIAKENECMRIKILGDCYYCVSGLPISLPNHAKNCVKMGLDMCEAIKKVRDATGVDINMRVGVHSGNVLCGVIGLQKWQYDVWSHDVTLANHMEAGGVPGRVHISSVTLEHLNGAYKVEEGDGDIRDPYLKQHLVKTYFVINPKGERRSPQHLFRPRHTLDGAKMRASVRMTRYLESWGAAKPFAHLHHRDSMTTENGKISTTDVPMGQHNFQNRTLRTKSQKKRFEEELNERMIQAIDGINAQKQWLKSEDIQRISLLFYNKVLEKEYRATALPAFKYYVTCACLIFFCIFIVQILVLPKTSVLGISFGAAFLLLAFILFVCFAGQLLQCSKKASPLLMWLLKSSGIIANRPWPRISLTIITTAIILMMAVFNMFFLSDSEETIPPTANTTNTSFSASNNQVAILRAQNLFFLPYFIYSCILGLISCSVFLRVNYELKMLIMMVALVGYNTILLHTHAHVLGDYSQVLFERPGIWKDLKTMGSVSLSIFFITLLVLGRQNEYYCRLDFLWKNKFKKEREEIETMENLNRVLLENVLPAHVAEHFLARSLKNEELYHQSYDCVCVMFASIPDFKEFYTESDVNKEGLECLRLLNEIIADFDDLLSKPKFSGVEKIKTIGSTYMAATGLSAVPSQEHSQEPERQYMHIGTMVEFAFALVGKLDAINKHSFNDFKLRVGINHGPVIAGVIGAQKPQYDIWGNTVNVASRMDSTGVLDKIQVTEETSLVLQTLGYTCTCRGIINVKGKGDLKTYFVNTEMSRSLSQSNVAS

With `COc1ccc(OC)c(N2C(=O)[C@H]3[C@@H](c4ccc(C)cc4)OC4(C(=O)c5ccccc5C4=O)[C@H]3C2=O)c1`, at Adenylate cyclase type 2 [1] (filed as agonist), the Activity stood at 103%. Further, the EC50 at Adenylate cyclase type 2 [2] was determined as 1200 nM. For `Cc1ccc([C@H]2OC3(C(=O)c4cccc(F)c4C3=O)[C@H]3C(=O)N(c4ccccc4Cl)C(=O)[C@@H]23)cc1` (mixture of isomers) the same measures were 59.1% and 345 nM. As for `CCOc1ccc(N2C(=O)[C@H]3[C@@H](c4ccccc4)OC4(C(=O)c5ccccc5C4=O)[C@H]3C2=O)cc1`, the Activity at Adenylate cyclase type 2 [1] (filed as agonist) was 82.3%. In addition, the EC50 at Adenylate cyclase type 2 [2] was found to be 32300 nM. For `Cc1ccccc1[C@H]1OC2(C(=O)c3ccccc3C2=O)[C@H]2C(=O)N(c3ccccc3Cl)C(=O)[C@@H]12`, the Activity at Adenylate cyclase type 2 [1] is 30.7%. As to `Cc1ccc([C@H]2OC3(C(=O)c4ccccc4C3=O)[C@H]3C(=O)N(C4CCCCC4)C(=O)[C@@H]23)cc1`, the Activity at Adenylate cyclase type 2 [1] (filed as agonist) was found to be 69.5%. Also, the EC50 on Adenylate cyclase type 2 [2] was determined as 1290 nM. As to `CC(C)=C[C@H]1OC2(C(=O)c3ccccc3C2=O)[C@H]2C(=O)N(c3ccccc3Cl)C(=O)[C@@H]12`, the Activity at Adenylate cyclase type 2 [1] (filed as agonist) was found to be 44.7%. Consider `Cc1ccc([C@H]2OC3(C(=O)c4ccccc4C3=O)[C@H]3C(=O)N(C4CC4)C(=O)[C@@H]23)cc1`, for which the Activity on Adenylate cyclase type 2 [1] (filed as agonist) turned out to be 70.8%. Moreover, at Adenylate cyclase type 2 [2], the EC50 came out at 3370 nM.

On to `COc1ccc([C@H]2OC3(C(=O)c4ccccc4C3=O)[C@H]3C(=O)N(c4ccccc4F)C(=O)[C@@H]23)cc1`, for which, on Adenylate cyclase type 2 [1], the Activity was 0.25%. For `Cc1ccc([C@H]2OC3(C(=O)c4ccc(Cl)cc4C3=O)[C@H]3C(=O)N(c4ccccc4Cl)C(=O)[C@@H]23)cc1` (mixture of isomers), the Activity at Adenylate cyclase type 2 [1] (filed as agonist) amounted to 96.2%. For the same molecule, the EC50 on Adenylate cyclase type 2 [2] stood at 236 nM. For `Cc1cccc([C@H]2OC3(C(=O)c4ccccc4C3=O)[C@H]3C(=O)N(c4ccccc4Cl)C(=O)[C@@H]23)c1` the same measures were 57.4% and 6810 nM. For `CCC[C@H]1OC2(C(=O)c3ccccc3C2=O)[C@H]2C(=O)N(c3ccccc3Cl)C(=O)[C@@H]12` the same measures were 59.6% and 4290 nM. With `COc1cc(C)ccc1N1C(=O)[C@H]2[C@@H](c3cccc(C)c3)OC3(C(=O)c4ccccc4C3=O)[C@H]2C1=O`, at Adenylate cyclase type 2 [1] (filed as agonist), the Activity worked out at 103%. Besides, on Adenylate cyclase type 2 [2], the EC50 was 5960 nM. For `Cc1ccc([C@H]2OC3(C(=O)c4cccc(C)c4C3=O)[C@H]3C(=O)N(c4ccccc4Cl)C(=O)[C@@H]23)cc1` (mixture of isomers), in that order: 59.3% and 1080 nM. As to `Cc1ccc([C@H]2OC3(C(=O)c4ccccc4C3=O)[C@H]3C(=O)N(C4CCC4)C(=O)[C@@H]23)cc1`, at Adenylate cyclase type 2 [1], the Activity is 0%. Regarding `Cc1ccc(N2C(=O)[C@H]3[C@@H](c4cccc(Cl)c4)OC4(C(=O)c5ccccc5C4=O)[C@H]3C2=O)cc1`, the Activity on Adenylate cyclase type 2 [1] (filed as agonist) worked out at 97.9%. On Adenylate cyclase type 2 [2], the EC50 came to 5050 nM.

Turning to `Cc1ccc([C@H]2OC3(C(=O)c4ccccc4C3=O)[C@H]3C(=O)N(c4ccc(F)c(Cl)c4)C(=O)[C@@H]23)cc1`, at Adenylate cyclase type 2 [1] (filed as agonist), the Activity amounted to 103%. The EC50 at Adenylate cyclase type 2 [2] was determined as 520 nM. Regarding `O=C1[C@H]2[C@@H](C3CCCCC3)OC3(C(=O)c4ccccc4C3=O)[C@H]2C(=O)N1c1ccccc1Cl`, the Activity on Adenylate cyclase type 2 [1] (filed as agonist) came out at 55.6%. Consider `Cc1ccc([C@H]2OC3(C(=O)c4ccccc4C3=O)[C@H]3C(=O)N(c4ccc(C)cc4F)C(=O)[C@@H]23)cc1`, for which the Activity on Adenylate cyclase type 2 [1] (filed as agonist) came out at 107%. Also, the EC50 on Adenylate cyclase type 2 [2] is 770 nM. In the case of `O=C1[C@H]2[C@@H](CCc3ccccc3)OC3(C(=O)c4ccccc4C3=O)[C@H]2C(=O)N1c1ccccc1Cl`, at Adenylate cyclase type 2 [1], the Activity is 32%. As to `O=C1[C@H]2[C@@H](c3ccc(Cl)cc3)OC3(C(=O)c4ccccc4C3=O)[C@H]2C(=O)N1c1cccc(F)c1`, the Activity at Adenylate cyclase type 2 [1] (filed as agonist) is 99.9%. Further, the EC50 on Adenylate cyclase type 2 [2] is 3530 nM. For `Cc1ccc(Cl)cc1N1C(=O)[C@H]2[C@@H](c3ccccc3)OC3(C(=O)c4ccccc4C3=O)[C@H]2C1=O`, in that order: 101% and 3120 nM. For `O=C1[C@H]2[C@@H](c3ccccc3)OC3(C(=O)c4ccccc4C3=O)[C@H]2C(=O)N1c1ccc(Cl)cc1`, in that order: 91.5% and 2060 nM.

`CC/C=C(\CCC)[C@H]1OC2(C(=O)c3ccccc3C2=O)[C@H]2C(=O)N(c3ccccc3Cl)C(=O)[C@@H]12`: the Activity on Adenylate cyclase type 2 [1] (filed as agonist) worked out at 44.5%. Turning to `O=C1[C@H]2[C@@H](c3ccc4ccccc4c3)OC3(C(=O)c4ccccc4C3=O)[C@H]2C(=O)N1c1ccccc1Cl`, the Activity at Adenylate cyclase type 2 [1] is 0%. Consider `Cc1ccc([C@H]2OC3(C(=O)c4ccccc4C3=O)[C@H]3C(=O)N(c4ccc(C)c(C)c4)C(=O)[C@@H]23)cc1`, for which, on Adenylate cyclase type 2 [1] (filed as agonist), the Activity was 104%. For the same molecule, the EC50 on Adenylate cyclase type 2 [2] was 210 nM.

`Cc1cc(C)cc(N2C(=O)[C@H]3[C@@H](c4ccc(Cl)cc4)OC4(C(=O)c5ccccc5C4=O)[C@H]3C2=O)c1`: the Activity at Adenylate cyclase type 2 [1] (filed as agonist) was determined as 96.9%. For the same molecule, at Adenylate cyclase type 2 [2], the EC50 worked out at 310 nM. Regarding `Cc1ccc([C@H]2OC3(C(=O)c4ccc(C)cc4C3=O)[C@H]3C(=O)N(c4ccccc4Cl)C(=O)[C@@H]23)cc1` (mixture of isomers), on Adenylate cyclase type 2 [1] (filed as agonist), the Activity is 98.1%. For the same molecule, the EC50 at Adenylate cyclase type 2 [2] was 300 nM. `Cc1ccc([C@H]2OC3(C(=O)c4ccccc4C3=O)[C@H]3C(=O)N(c4ccc(C)c(Cl)c4)C(=O)[C@@H]23)cc1`: the Activity on Adenylate cyclase type 2 [1] (filed as agonist) was 96.4%. Besides, the EC50 at Adenylate cyclase type 2 [2] amounted to 750 nM. Consider `COc1cccc(N2C(=O)[C@H]3[C@@H](c4ccc(C)cc4)OC4(C(=O)c5ccccc5C4=O)[C@H]3C2=O)c1`, for which, at Adenylate cyclase type 2 [1] (filed as agonist), the Activity amounted to 84.6%. Moreover, the EC50 on Adenylate cyclase type 2 [2] turned out to be 960 nM. With `Cc1ccc([C@H]2OC3(C(=O)c4ccccc4C3=O)[C@H]3C(=O)N(C(C)(C)C)C(=O)[C@@H]23)cc1`, the Activity on Adenylate cyclase type 2 [1] was 31%. With `CCOc1ccc(N2C(=O)[C@H]3[C@@H](c4ccc(F)cc4)OC4(C(=O)c5ccccc5C4=O)[C@H]3C2=O)cc1`, the Activity on Adenylate cyclase type 2 [1] (filed as agonist) was 91%. Further, on Adenylate cyclase type 2 [2], the EC50 came out at 39300 nM.

Consider `Cc1ccc(N2C(=O)[C@H]3[C@@H](c4ccccc4)OC4(C(=O)c5ccccc5C4=O)[C@H]3C2=O)cc1Cl`, for which the Activity at Adenylate cyclase type 2 [1] (filed as agonist) amounted to 80.3%.

As to `O=C1[C@H]2[C@@H](C3CC3)OC3(C(=O)c4ccccc4C3=O)[C@H]2C(=O)N1c1ccccc1Cl`, the Activity on Adenylate cyclase type 2 [1] amounted to 0%. On to `Cc1cc(C)cc(N2C(=O)[C@H]3[C@@H](c4ccccc4Cl)OC4(C(=O)c5ccccc5C4=O)[C@H]3C2=O)c1`, for which, at Adenylate cyclase type 2 [1], the Activity was 7.14%. Turning to `Cc1ccc([C@H]2OC3(C(=O)c4ccccc4C3=O)[C@H]3C(=O)N(C(C)C)C(=O)[C@@H]23)cc1`, the Activity on Adenylate cyclase type 2 [1] (filed as agonist) stood at 59%. The EC50 on Adenylate cyclase type 2 [2] amounted to 7340 nM. For `Cc1ccc([C@H]2OC3(C(=O)c4ccccc4C3=O)[C@H]3C(=O)N(C)C(=O)[C@@H]23)cc1` the same measures were 62% and 3080 nM. For `Cc1ccc([C@H]2OC3(C(=O)c4ccc(F)cc4C3=O)[C@H]3C(=O)N(c4ccccc4Cl)C(=O)[C@@H]23)cc1` (mixture of isomers), in that order: 80.8% and 692 nM.

Regarding `CCc1ccc([C@H]2OC3(C(=O)c4ccccc4C3=O)[C@H]3C(=O)N(c4ccc(C)cc4)C(=O)[C@@H]23)cc1`, the Activity on Adenylate cyclase type 2 [1] (filed as agonist) was 95.9%. At Adenylate cyclase type 2 [2], the EC50 turned out to be 670 nM. For `Cc1ccc([C@H]2OC3(C(=O)c4ccccc4C3=O)[C@H]3C(=O)N(c4ccc(F)cc4)C(=O)[C@@H]23)cc1`, in that order: 99.5% and 1640 nM. Regarding `CC(C)[C@H]1OC2(C(=O)c3ccccc3C2=O)[C@H]2C(=O)N(c3ccccc3Cl)C(=O)[C@@H]12`, on Adenylate cyclase type 2 [1], the Activity worked out at 27.2%. The same measure, in the same setting: in the case of `O=C1[C@H]2[C@@H](Cc3ccccc3)OC3(C(=O)c4ccccc4C3=O)[C@H]2C(=O)N1c1ccccc1Cl` it was 0%. Consider `Cc1ccc([C@H]2OC3(C(=O)c4cccc(Cl)c4C3=O)[C@H]3C(=O)N(c4ccccc4Cl)C(=O)[C@@H]23)cc1` (mixture of isomers), for which the Activity at Adenylate cyclase type 2 [1] (filed as agonist) amounted to 88.5%. Also, the EC50 on Adenylate cyclase type 2 [2] came out at 301 nM. For the molecule `Cc1ccc([C@H]2OC3(C(=O)c4ccccc4C3=O)[C@H]3C(=O)N(CC(C)C)C(=O)[C@@H]23)cc1`, the Activity at Adenylate cyclase type 2 [1] (filed as agonist) worked out at 56.7%. With `CCc1ccc(N2C(=O)[C@H]3[C@@H](c4ccc(Cl)cc4)OC4(C(=O)c5ccccc5C4=O)[C@H]3C2=O)cc1`, on Adenylate cyclase type 2 [1] (filed as agonist), the Activity is 102%. Besides, the EC50 on Adenylate cyclase type 2 [2] was determined as 430 nM. For `Cc1ccc([C@H]2OC3(C(=O)c4ccccc4C3=O)[C@H]3C(=O)N(c4ccccc4Cl)C(=O)[C@@H]23)cc1`, in that order: 93.6% and 170 nM.

Consider `CCOc1ccc([C@H]2OC3(C(=O)c4ccccc4C3=O)[C@H]3C(=O)N(c4ccc(C)cc4)C(=O)[C@@H]23)cc1`, for which the Activity on Adenylate cyclase type 2 [1] (filed as agonist) was found to be 100%. For the same molecule, the EC50 on Adenylate cyclase type 2 [2] is 24800 nM. For the molecule `O=C1[C@H]2[C@@H](c3ccc(-c4ccccc4)cc3)OC3(C(=O)c4ccccc4C3=O)[C@H]2C(=O)N1c1ccccc1Cl`, at Adenylate cyclase type 2 [1], the Activity turned out to be 5.04%. For `Cc1cccc([C@H]2OC3(C(=O)c4ccccc4C3=O)[C@H]3C(=O)N(c4cccc(C)c4)C(=O)[C@@H]23)c1`, the Activity on Adenylate cyclase type 2 [1] (filed as agonist) was determined as 84.7%. Consider `Cc1ccc([C@H]2OC3(C(=O)c4ccccc4C3=O)[C@H]3C(=O)N(C4CCCC4)C(=O)[C@@H]23)cc1`, for which the Activity on Adenylate cyclase type 2 [1] (filed as agonist) is 64.9%. Besides, the EC50 on Adenylate cyclase type 2 [2] amounted to 3440 nM. With `COc1ccc(N2C(=O)[C@H]3[C@@H](c4ccc(C)cc4)OC4(C(=O)c5ccccc5C4=O)[C@H]3C2=O)cc1`, at Adenylate cyclase type 2 [1] (filed as agonist), the Activity was 93.6%. Further, on Adenylate cyclase type 2 [2], the EC50 was 17100 nM. On to `CC[C@H]1OC2(C(=O)c3ccccc3C2=O)[C@H]2C(=O)N(c3ccccc3Cl)C(=O)[C@@H]12`, for which, at Adenylate cyclase type 2 [1], the Activity came out at 0%.

Regarding `CCc1ccccc1N1C(=O)[C@H]2[C@@H](c3ccccc3Cl)OC3(C(=O)c4ccccc4C3=O)[C@H]2C1=O`, at Adenylate cyclase type 2 [1], the Activity amounted to 20%.

With `CC(C)c1ccc([C@H]2OC3(C(=O)c4ccccc4C3=O)[C@H]3C(=O)N(c4ccc(F)cc4)C(=O)[C@@H]23)cc1`, the Activity at Adenylate cyclase type 2 [1] (filed as agonist) turned out to be 89.3%. Moreover, the EC50 on Adenylate cyclase type 2 [2] turned out to be 1300 nM. On to `CCOc1ccc(N2C(=O)[C@H]3[C@@H](c4ccc(C)cc4)OC4(C(=O)c5ccccc5C4=O)[C@H]3C2=O)cc1`, for which, on Adenylate cyclase type 2 [1] (filed as agonist), the Activity came out at 97.7%. Moreover, the EC50 at Adenylate cyclase type 2 [2] came to 10800 nM.

A word on the EC50: it is the concentration needed to bring the measured effect to its halfway point.
